Values of other authors, collected in paper PMC3273554 (Molecular Pharmaceutics, 2011).

How the values were obtained:
T cells = conditions: intracellular IFN-γ staining
B16F10 = conditions: delivered with poly(I:C) and anti-CD40, boosted; prophylactic B16F10 model
HLA-A201 = conditions: 100µg (63.8nmol) with 50µg PADRE T helper epitope in IFA

In the case of CCCS(=O)(=O)Nc1ccc(F)c(C(=O)c2c[nH]c3ncc(-c4ccc(Cl)cc4)cc23)c1F [vemurafenib], the “Response rate in trials” value (melanoma, BRAF V600E) is listed as at most 81%.

In the case of SIYDFFVWL [deltaV], the “T cell responsiveness to Trp2” value (T cells) is given as “increased T cell responsiveness” and the “Tumor growth delay compared to wild type peptide” value (B16F10) is given as “no increased growth delay”.

For SMYDFFVWL [Trp2 2M], the “IFN-γ elicited compared to vaccination with wild type peptide” value (HLA-A201) is given as “higher amounts of IFN-γ”.
